Laboratory results reported in US11752188B2, “Compositions and methods for nutritional supplements” (DailyColors Health Inc., priority 2020, dated 2023).
Where two headings read alike, the source gives them in different places.

Legend:
Type in all cases: biochemical
[1] = target: recombinant human JAK2 (Homo sapiens, UniProt O60674); test: JAK2 Kinase-Glo Plus luminescence kinase assay
[2] = target: T1, recombinant human JAK3 (Homo sapiens, UniProt P52333); test: JAK3 Kinase-Glo Plus luminescence kinase assay
T1 sequence (P52333 1-1124): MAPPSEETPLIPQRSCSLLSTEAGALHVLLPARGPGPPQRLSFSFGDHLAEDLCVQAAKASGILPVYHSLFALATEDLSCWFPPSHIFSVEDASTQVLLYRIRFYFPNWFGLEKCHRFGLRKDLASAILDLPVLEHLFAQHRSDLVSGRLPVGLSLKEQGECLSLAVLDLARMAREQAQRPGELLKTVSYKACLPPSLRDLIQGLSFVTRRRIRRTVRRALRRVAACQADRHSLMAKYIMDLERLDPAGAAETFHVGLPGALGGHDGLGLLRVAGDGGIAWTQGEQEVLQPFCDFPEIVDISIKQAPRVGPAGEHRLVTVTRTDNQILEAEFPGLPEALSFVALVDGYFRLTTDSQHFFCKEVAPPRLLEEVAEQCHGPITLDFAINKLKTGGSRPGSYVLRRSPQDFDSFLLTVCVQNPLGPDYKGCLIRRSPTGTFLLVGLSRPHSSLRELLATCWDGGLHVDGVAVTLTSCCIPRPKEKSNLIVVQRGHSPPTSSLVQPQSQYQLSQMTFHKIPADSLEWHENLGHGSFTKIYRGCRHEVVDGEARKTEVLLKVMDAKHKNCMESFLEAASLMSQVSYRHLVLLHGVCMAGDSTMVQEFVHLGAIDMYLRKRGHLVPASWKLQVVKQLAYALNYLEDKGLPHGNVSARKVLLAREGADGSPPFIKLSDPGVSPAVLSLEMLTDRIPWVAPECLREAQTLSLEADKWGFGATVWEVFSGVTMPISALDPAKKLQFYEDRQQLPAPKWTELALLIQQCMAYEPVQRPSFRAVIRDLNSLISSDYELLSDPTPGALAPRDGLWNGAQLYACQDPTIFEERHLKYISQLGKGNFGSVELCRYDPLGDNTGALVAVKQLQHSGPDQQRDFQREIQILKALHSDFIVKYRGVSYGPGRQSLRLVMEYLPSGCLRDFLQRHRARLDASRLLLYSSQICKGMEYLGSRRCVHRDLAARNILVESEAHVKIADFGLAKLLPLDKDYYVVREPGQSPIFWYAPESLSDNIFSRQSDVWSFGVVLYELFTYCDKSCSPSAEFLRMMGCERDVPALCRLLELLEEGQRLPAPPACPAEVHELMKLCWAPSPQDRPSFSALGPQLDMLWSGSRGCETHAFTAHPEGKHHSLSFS

[3] = target: recombinant human JAK1 (Homo sapiens, UniProt P23458); test: JAK1 Kinase-Glo Plus luminescence kinase assay
recombinant human JAK1, sequence (P23458 whole entry): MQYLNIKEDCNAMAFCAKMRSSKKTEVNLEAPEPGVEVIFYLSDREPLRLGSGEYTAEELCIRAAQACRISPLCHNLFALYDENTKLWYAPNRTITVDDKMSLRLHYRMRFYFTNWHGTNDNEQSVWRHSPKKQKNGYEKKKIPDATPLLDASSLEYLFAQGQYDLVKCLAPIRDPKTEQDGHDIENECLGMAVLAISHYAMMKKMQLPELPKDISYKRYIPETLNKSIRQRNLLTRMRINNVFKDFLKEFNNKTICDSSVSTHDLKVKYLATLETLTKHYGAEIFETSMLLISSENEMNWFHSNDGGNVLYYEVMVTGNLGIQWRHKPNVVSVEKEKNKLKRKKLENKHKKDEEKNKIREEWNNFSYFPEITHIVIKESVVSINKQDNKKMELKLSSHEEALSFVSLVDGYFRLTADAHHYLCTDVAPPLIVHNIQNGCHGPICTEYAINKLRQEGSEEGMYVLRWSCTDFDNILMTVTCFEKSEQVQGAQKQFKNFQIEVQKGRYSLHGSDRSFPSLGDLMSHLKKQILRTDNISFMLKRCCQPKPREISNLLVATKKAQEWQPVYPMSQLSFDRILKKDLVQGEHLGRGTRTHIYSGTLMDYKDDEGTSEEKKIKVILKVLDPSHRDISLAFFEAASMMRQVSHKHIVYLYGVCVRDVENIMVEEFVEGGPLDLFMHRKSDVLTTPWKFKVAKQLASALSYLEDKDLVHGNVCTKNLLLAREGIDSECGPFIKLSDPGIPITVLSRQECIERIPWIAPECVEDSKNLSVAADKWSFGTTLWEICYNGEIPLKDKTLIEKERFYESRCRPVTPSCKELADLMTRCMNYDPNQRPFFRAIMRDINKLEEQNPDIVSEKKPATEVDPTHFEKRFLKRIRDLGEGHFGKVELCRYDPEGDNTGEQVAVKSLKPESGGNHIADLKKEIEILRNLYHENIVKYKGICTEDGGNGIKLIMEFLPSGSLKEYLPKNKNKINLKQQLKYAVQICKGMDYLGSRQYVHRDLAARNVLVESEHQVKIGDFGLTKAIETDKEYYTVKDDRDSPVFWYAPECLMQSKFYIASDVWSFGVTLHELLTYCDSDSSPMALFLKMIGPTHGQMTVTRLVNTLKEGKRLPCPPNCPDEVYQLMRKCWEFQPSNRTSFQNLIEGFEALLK

recombinant human JAK2, sequence (O60674 whole entry): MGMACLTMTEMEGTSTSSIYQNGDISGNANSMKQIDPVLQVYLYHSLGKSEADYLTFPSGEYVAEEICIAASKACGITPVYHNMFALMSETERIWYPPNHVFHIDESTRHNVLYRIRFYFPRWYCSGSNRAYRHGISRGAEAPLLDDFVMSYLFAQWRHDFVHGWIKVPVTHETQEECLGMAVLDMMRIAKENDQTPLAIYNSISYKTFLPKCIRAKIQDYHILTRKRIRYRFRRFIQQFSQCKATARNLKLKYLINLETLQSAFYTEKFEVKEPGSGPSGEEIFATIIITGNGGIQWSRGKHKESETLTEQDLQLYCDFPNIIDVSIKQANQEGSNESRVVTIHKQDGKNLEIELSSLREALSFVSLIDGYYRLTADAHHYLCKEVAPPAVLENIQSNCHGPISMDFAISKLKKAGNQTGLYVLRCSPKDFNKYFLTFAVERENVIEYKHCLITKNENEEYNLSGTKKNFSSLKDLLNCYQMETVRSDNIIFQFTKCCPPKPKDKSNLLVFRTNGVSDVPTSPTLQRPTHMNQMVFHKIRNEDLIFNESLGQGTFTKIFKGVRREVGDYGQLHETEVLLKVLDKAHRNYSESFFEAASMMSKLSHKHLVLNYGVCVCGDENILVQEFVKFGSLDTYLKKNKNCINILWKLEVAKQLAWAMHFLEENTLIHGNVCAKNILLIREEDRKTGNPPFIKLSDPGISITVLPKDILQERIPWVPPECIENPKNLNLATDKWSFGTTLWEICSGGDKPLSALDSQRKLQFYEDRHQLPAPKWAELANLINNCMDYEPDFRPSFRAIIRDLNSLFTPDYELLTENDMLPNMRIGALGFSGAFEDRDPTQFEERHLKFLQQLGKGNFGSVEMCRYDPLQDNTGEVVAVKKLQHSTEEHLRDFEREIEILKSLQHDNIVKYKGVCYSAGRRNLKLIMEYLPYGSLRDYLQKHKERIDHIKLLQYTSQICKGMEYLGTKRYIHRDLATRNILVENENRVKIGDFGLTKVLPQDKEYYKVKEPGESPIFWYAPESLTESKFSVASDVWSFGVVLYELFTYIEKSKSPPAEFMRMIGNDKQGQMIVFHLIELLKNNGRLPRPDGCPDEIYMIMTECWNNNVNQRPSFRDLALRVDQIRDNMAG

Compound: CN[C@@H]1C[C@H]2O[C@@](C)([C@@H]1OC)n1c3ccccc3c3c4c(c5c6ccccc6n2c5c31)C(=O)NC4 [Staurosporine]
- Kinase Activity Luminescence Repeat1 ([1]; 0.001 μM, TABLE 69): 19100
- Kinase Activity Luminescence Repeat2 ([1]; 0.001 μM, TABLE 69): 20922
- inhibition at 0.001 µM ([1]; 0.001 μM, TABLE 69): 0%
- activity at 0.001 µM ([1]; 0.001 μM, TABLE 69, read-out: % Activity Repeat1): 105%
- activity at 0.001 µM ([1]; 0.001 μM, TABLE 69, read-out: % Activity Repeat2): 96%
- Kinase Activity Luminescence Repeat1 ([1]; 1 nM, TABLE 72): 9482
- Kinase Activity Luminescence Repeat2 ([1]; 1 nM, TABLE 72): 10430
- activity at 0.001 µM ([1]; 1 nM, TABLE 72, read-out: % Activity Repeat1): 89%
- activity at 0.001 µM ([1]; 1 nM, TABLE 72, read-out: % Activity Repeat2): 86%
- Kinase Activity Luminescence Repeat1 ([1]; 0.01 μM, TABLE 69): 36988
- Kinase Activity Luminescence Repeat2 ([1]; 0.01 μM, TABLE 69): 36554
- activity at 0.01 µM ([1]; 0.01 μM, TABLE 69, read-out: % Activity Repeat1): 16%
- activity at 0.01 µM ([1]; 0.01 μM, TABLE 69, read-out: % Activity Repeat2): 18%
- inhibition at 0.01 µM ([1]; 0.01 μM, TABLE 69, read-out: % Inhibition): 83%
- Kinase Activity Luminescence Repeat1 ([1]; 10 nM, TABLE 72): 17529
- Kinase Activity Luminescence Repeat2 ([1]; 10 nM, TABLE 72): 16180
- activity at 0.01 µM ([1]; 10 nM, TABLE 72, read-out: % Activity Repeat1): 65%
- activity at 0.01 µM ([1]; 10 nM, TABLE 72, read-out: % Activity Repeat2): 69%
- inhibition at 0.01 µM ([1]; 10 nM, TABLE 74 summary, read-out: % Inhibition JAK2): 33%
- Kinase Activity Luminescence Repeat1 ([1]; 0.1 μM, TABLE 69): 42700
- Kinase Activity Luminescence Repeat2 ([1]; 0.1 μM, TABLE 69): 40639
- inhibition at 0.1 µM ([1]; 0.1 μM, TABLE 69): 100%
- activity at 0.1 µM ([1]; 0.1 μM, TABLE 69, read-out: % Activity Repeat1): 0%
- activity at 0.1 µM ([1]; 0.1 μM, TABLE 69, read-out: % Activity Repeat2): 0%
- Kinase Activity Luminescence Repeat1 ([1]; 100 nM, TABLE 72): 34660
- Kinase Activity Luminescence Repeat2 ([1]; 100 nM, TABLE 72): 34762
- inhibition at 0.001 µM [2]: 19%
- inhibition at 0.01 µM [2]: 65%
- inhibition at 0.1 µM [2]: 100%
- Kinase Activity Luminescence Repeat1 ([2]; 0.001 μM, TABLE 70): 23814
- Kinase Activity Luminescence Repeat2 ([2]; 0.001 μM, TABLE 70): 23348
- Kinase Activity Luminescence Repeat1 ([2]; 1 nM, TABLE 73): 21050
- Kinase Activity Luminescence Repeat2 ([2]; 1 nM, TABLE 73): 24827
- Kinase Activity Luminescence Repeat1 ([2]; 0.01 μM, TABLE 70): 32137
- Kinase Activity Luminescence Repeat2 ([2]; 0.01 μM, TABLE 70): 32417
- Kinase Activity Luminescence Repeat1 ([2]; 10 nM, TABLE 73): 32876
- Kinase Activity Luminescence Repeat2 ([2]; 10 nM, TABLE 73): 34538
- Kinase Activity Luminescence Repeat1 ([2]; 0.1 μM, TABLE 70): 39970
- Kinase Activity Luminescence Repeat2 ([2]; 0.1 μM, TABLE 70): 40121
- Kinase Activity Luminescence Repeat1 ([2]; 100 nM, TABLE 73): 37496
- Kinase Activity Luminescence Repeat2 ([2]; 100 nM, TABLE 73): 39233
- activity at 0.001 µM ([2]; read-out: % Activity Repeat1, 0.001 μM, TABLE 70): 80%
- activity at 0.001 µM ([2]; read-out: % Activity Repeat1, 1 nM, TABLE 73): 84%
- activity at 0.01 µM ([2]; read-out: % Activity Repeat1, 10 nM, TABLE 73): 27%
- activity at 0.1 µM ([2]; read-out: % Activity Repeat1, 0.1 μM, TABLE 70): 0%
- activity at 0.1 µM ([2]; read-out: % Activity Repeat1, 100 nM, TABLE 73): 5%
- activity at 0.001 µM ([2]; read-out: % Activity Repeat2, 0.001 μM, TABLE 70): 82%
- activity at 0.001 µM ([2]; read-out: % Activity Repeat2, 1 nM, TABLE 73): 66%
- activity at 0.01 µM ([2]; read-out: % Activity Repeat2, 0.01 μM, TABLE 70): 35%
- activity at 0.01 µM ([2]; read-out: % Activity Repeat2, 10 nM, TABLE 73): 20%
- activity at 0.1 µM ([2]; read-out: % Activity Repeat2, 0.1 μM, TABLE 70): 0%
- activity at 0.1 µM ([2]; read-out: % Activity Repeat2, 100 nM, TABLE 73): 0%
- inhibition at 0.001 µM ([2]; read-out: % Inhibition JAK3): 25%
- inhibition at 0.01 µM ([2]; read-out: % Inhibition JAK3): 77%
- inhibition at 0.1 µM ([2]; read-out: % Inhibition JAK3): 97%
- inhibition at 0.001 µM [3]: 7%
- inhibition at 0.01 µM [3]: 72%
- Kinase Activity Luminescence Repeat1 ([3]; 0.001 μM, TABLE 68): 25176
- Kinase Activity Luminescence Repeat2 ([3]; 0.001 μM, TABLE 68): 27054
- Kinase Activity Luminescence Repeat1 ([3]; 1 nM, TABLE 71): 21164
- Kinase Activity Luminescence Repeat2 ([3]; 1 nM, TABLE 71): 24810
- Kinase Activity Luminescence Repeat1 ([3]; 0.01 μM, TABLE 68): 37642
- Kinase Activity Luminescence Repeat2 ([3]; 0.01 μM, TABLE 68): 35358
- Kinase Activity Luminescence Repeat1 ([3]; 10 nM, TABLE 71): 28640
- Kinase Activity Luminescence Repeat2 ([3]; 10 nM, TABLE 71): 32000
- Kinase Activity Luminescence Repeat1 ([3]; 0.1 μM, TABLE 68): 40161
- Kinase Activity Luminescence Repeat2 ([3]; 0.1 μM, TABLE 68): 40781
- Kinase Activity Luminescence Repeat1 ([3]; 100 nM, TABLE 71): 36908
- Kinase Activity Luminescence Repeat2 ([3]; 100 nM, TABLE 71): 39509
- activity at 0.001 µM ([3]; read-out: % Activity Repeat1, 0.001 μM, TABLE 68): 99%
- activity at 0.001 µM ([3]; read-out: % Activity Repeat1, 1 nM, TABLE 71): 88%
- activity at 0.01 µM ([3]; read-out: % Activity Repeat1, 10 nM, TABLE 71): 52%
- activity at 0.1 µM ([3]; read-out: % Activity Repeat1, 0.1 μM, TABLE 68): 5%
- activity at 0.1 µM ([3]; read-out: % Activity Repeat1, 100 nM, TABLE 71): 11%
- activity at 0.001 µM ([3]; read-out: % Activity Repeat2, 0.001 μM, TABLE 68): 87%
- activity at 0.001 µM ([3]; read-out: % Activity Repeat2, 1 nM, TABLE 71): 70%
- activity at 0.1 µM ([3]; read-out: % Activity Repeat2, 0.1 μM, TABLE 68): 1%
- activity at 0.1 µM ([3]; read-out: % Activity Repeat2, 100 nM, TABLE 71): 0%
- inhibition at 0.01 µM ([3]; read-out: % Inhibition JAK1): 56%
- inhibition at 0.1 µM ([3]; read-out: % Inhibition JAK1): 94%
